We go through six molecules from ChEMBL document CHEMBL1134824, “Beta-D-glycosylamidines: potent, selective, and easily accessible 1-glycosidase inhibitors” (Bioorg Med Chem Lett, 2001).

The Ki is a dissociation constant, usually derived from enzyme kinetics or from competition with a known ligand. In general, pKa refers to the negative logarithm of the acid dissociation constant.

The nature of data set [1]: Compound was evaluated for the selective and competitive inhibition of Beta-galactosidase from Aspergillus pulverulentus.
A short description of data set [2]: Compound was evaluated for the selective and competitive inhibition of Alpha-glucosidase from Yeast at 2.5 mM. The arrangement: species or system Saccharomyces cerevisiae.
Data set [3] can be described thus: Compound was evaluated for the selective and competitive inhibition of Beta-galactosidase from Aspergillus oryzae at 2.5 mM; NI = No inhibition.
Data set [4] in a line: Compound was evaluated for the selective and competitive inhibition of Alpha-glucosidase from Aspergillus niger at 2.5 mM; NI = No inhibition.
Data set [5] in a line: Compound was evaluated for the selective and competitive inhibition of beta-glucosidase from Aspergillus niger.
Data set [6] is described as follows: Compound was evaluated for the selective and competitive inhibition of Beta-glucosidase from Almond. Details: species or system Prunus dulcis; call rule not given here.
Data set [7] can be described thus: Compound was evaluated for the selective and competitive inhibition of Alpha-glucosidase from Bacillus sp. at 2.5 mM; NI = No inhibition.
Data set [8] can be described thus: Compound was evaluated for the selective and competitive inhibition of Beta-glucosidase from Trichoderma viride.
Data set [9] is described as follows: Compound was evaluated for the selective and competitive inhibition of Beta-galactosidase from Escherichia coli at 2.5 mM; NI = No inhibition.
The nature of data set [10]: Compound was evaluated for the basicity, pKa of the conjugate acids. In kind it is physicochemical.
Data set [11] can be described thus: Compound was evaluated for the selective and competitive inhibition of Alpha-glucosidase from Yeast. Details: species or system Saccharomyces cerevisiae.
Data set [12] in a line: Compound was evaluated for the selective and competitive inhibition of Beta-glucosidase from Aspergillus niger.
Data set [13] in a line: Compound was evaluated for the selective and competitive inhibition of Alpha-glucosidase from Aspergillus niger.
Data set [14] can be described thus: Compound was evaluated for the selective and competitive inhibition of Beta-glucosidase from Almond at 2.5 mM; NI = No inhibition. The arrangement: species or system Prunus dulcis.
Data set [15] addresses T1, Exo-1,4-beta-xylosidase xlnD (Aspergillus niger, UniProt O00089).
T1 sequence (O00089 whole entry): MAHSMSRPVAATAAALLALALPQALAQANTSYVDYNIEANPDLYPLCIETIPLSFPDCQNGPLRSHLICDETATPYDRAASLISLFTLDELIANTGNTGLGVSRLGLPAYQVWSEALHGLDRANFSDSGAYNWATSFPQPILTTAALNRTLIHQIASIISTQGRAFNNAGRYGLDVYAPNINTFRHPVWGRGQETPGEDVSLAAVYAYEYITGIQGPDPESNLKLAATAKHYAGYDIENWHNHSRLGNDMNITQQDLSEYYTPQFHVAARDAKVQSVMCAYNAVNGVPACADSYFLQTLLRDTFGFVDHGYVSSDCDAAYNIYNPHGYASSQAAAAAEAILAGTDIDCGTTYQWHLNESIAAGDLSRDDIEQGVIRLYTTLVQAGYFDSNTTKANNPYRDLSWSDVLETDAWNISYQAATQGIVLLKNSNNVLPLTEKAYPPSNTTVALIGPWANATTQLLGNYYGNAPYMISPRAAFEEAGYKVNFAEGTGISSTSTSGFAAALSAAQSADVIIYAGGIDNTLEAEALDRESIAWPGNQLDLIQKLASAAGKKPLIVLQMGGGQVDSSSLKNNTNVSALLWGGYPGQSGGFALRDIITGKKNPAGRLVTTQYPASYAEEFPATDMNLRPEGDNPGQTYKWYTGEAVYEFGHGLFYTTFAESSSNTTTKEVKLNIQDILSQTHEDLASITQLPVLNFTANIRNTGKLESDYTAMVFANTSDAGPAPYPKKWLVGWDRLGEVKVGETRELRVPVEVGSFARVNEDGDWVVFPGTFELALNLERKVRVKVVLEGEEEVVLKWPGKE
In words: Compound was evaluated for the selective and competitive inhibition of beta-xylosidase from A. pulverulentus; NI = No inhibition at 2.5 mM. The arrangement: species or system Aspergillus pulverulentus.

Data set [16] is described as follows: Compound was evaluated for the selective and competitive inhibition of Beta-galactosidase from Escherichia coli.
The nature of data set [17]: Compound was evaluated for the selective and competitive inhibition of Alpha-glucosidase from Bacillus sp.
Data set [18] is described as follows: Compound was evaluated for the selective and competitive inhibition of Beta-xylosidase from Aspergillus pulverulentus at 2.5 mM; NI = No inhibition.
In data set [19] the target is T1, Exo-1,4-beta-xylosidase xlnD. Description: Compound was evaluated for the selective and competitive inhibition of Beta-xylosidase from Aspergillus pulverulentus.
A short description of data set [20]: Compound was evaluated for the selective and competitive inhibition of Alpha-glucosidase from Yeast at 2.5 mM; NI = No inhibition. The arrangement: species or system Saccharomyces cerevisiae.
A short description of data set [21]: Compound was evaluated for the selective and competitive inhibition of Beta-galactosidase from Aspergillus oryzae.

For the molecule `Br.N=C(Cc1ccccc1)NC1OCC(O)C(O)C1O` (centres undefined), the Ki was 2.5 µM in data set [1]; “No inhibition” in data set [2]; “Not Active” in data set [3]; “Not Active” in data set [4]; 11 µM in data set [5]; 1100 µM in data set [6]. The inhibition constant (Ki) result in [7] was “Not Active”; in data set [8] it was 13 µM; in data set [9] it was “Not Active”.

As to `NC1OCC(O)C(O)C1O` (centres undefined), the pKa in data set [10] was 5.6.

For the molecule `O=C(Cc1ccccc1)NC1OC(CO)C(O)C(O)C1O` (centres undefined), the Ki in data set [11] is more than 2500 µM; in [12] it was 770 µM; in data set [13] it was more than 2500 µM; in [3], “Not Active”; in [14], “Not Active”; in data set [15] it was “No inhibition”. For the same molecule, the Ki is more than 2000 µM in data set [16], “Not Active” in [7] and 770 µM in data set [8].

In data set [10], `NC1OC(CO)C(O)C(O)C1O` (centres undefined) returned a pKa of 5.6.

Consider `Br.N=C(Cc1ccccc1)NC1OC(CO)C(O)C(O)C1O` (stereo in doubt; 1a), for which the inhibitory constant (Ki) was 21 µM in [11]; more than 2500 µM in data set [17]; 0.094 µM in data set [12]; more than 2500 µM in data set [13]; “Not Active” in [18]; “Not Active” in [3]. In addition, the Ki entry is “Not Active” in [4], 73 µM in [6], 0.13 µM in data set [8] and “Not Active” in data set [9].

In the case of `Br.N=C(Cc1ccccc1)NC1OC(CO)C(O)C(O)C1O` (stereo in doubt; 1b), the inhibition constant Ki in data set [12] is 390 µM; in data set [19] it was 1000 µM; in data set [13], 47 µM; in [16], 7.8 µM; in data set [6] it was 41 µM; in [20] it was “Not Active”. Besides, the inhibition constant (Ki) in data set [21] was 2.4 µM; in data set [7], “Not Active”; in data set [8], 390 µM.
